Source: patent US7928238B2, “1,2,3,4-tetrahydro-quinoline derivatives as CETP inhibitors” (Janssen Pharmaceutica NV, priority 2006, dated 2011)
pIC50: −log10 of the molar value. “And” between values parts separate entries of the source, which are not always exact repeats. Equal entries are not always repeated.

Biological target: T1, CETP (Homo sapiens, UniProt P11597)
T1 construct: from tissue; host or cells: human plasma from normal volunteers
T1 sequence (P11597 18-493): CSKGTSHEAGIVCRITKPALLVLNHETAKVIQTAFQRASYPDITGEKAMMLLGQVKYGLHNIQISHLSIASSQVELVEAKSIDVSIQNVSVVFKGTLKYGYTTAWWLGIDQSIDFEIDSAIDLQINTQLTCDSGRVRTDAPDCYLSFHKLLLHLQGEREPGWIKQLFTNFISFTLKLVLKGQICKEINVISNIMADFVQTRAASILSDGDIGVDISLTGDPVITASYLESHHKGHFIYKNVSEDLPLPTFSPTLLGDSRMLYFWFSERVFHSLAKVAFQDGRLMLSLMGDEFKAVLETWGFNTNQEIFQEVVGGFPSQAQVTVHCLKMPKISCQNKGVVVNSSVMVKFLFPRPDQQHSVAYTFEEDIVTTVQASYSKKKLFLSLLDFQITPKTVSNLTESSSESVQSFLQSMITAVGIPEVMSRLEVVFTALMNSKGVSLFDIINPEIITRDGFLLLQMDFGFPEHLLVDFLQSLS
Test: CETP in vitro assay (Amersham kit TRKQ7005; modified protocol in human plasma, [3H]CE-HDL transfer)
Format: biochemical
Conditions: for % Inhibition @ 1 μM / inhibition at 1 µM: 1 μM compound; for pIC50: from plots of % control versus compound concentration; for inhibition at 1 µM: read-out: % Inhibition @ 1 μM
Description: The CETP inhibitory activity of the compounds was determined using a commercially available kit from Amersham Biosciences (Catalog #TRKQ7005).
Briefly, 80 μl of human plasma (obtained from normal volunteers), approximately 25 μg/ml (20 μl) of [^3H]CE-HDL (Amersham Biosciences from kit TRKQ7005) and 1 μl of compound dissolved in DMSO was incubated for at least 4 hrs at 37° C. and non-specific transfer was determined by incubating a corresponding plate at 4° C. (blank). After the incubation period, 10 μl of a solution of 1% Dextralip 50/0.5M MgCl2, pH 7.4 was added, vortexed and incubated at room temperature for 10 min. The plate was then centrifuged for 30 min at 10° C. at 300 rpm in a Sorvall RT6000B centrifuge. Fifty microliters of the supernatant was transferred to a Picoplate (Packard) containing 100 μl of Microscint 40 (Perkin Elmer) and mixed for 30 min using a plate mixer. The radioactivity was counted using a TopCount (Perkin Elmer) and the % control was determined in the samples using the following formula: % transfer relative to vehicle controls (% control)=[cpm blank−cpm test]/cpm blank/cpm control]×100. IC50s were calculated from plots of the % control versus compound concentration.

| Compound | % Inhibition @ 1 μM | pIC50 | inhibition at 1 µM [%] |
| --- | --- | --- | --- |
| CC(C)c1cccc(-c2cccc3c2CCC(c2cccc(OC(F)(F)C(F)F)c2)N3CC(O)C(F)(F)F)c1 (centres unmarked) [Compound 66, 1,1,1-Trifluoro-3-{5-(3-isopropyl-phenyl)-2-[3-(1,1,2,2-tetrafluoro-ethoxy)-phenyl]-3,4-dihydro-2H-quinolin-1-yl}-propan-2-ol] | 60% and 65% | 6.74 and 6.43 | – |
| OC(CN1c2cccc(-c3cccc(OC(F)(F)F)c3)c2CCC1c1cccs1)C(F)(F)F (centres unmarked) [Compound 33, 1,1,1-Trifluoro-3-[2-thiophen-2-yl-5-(3-trifluoromethoxy-phenyl)-3,4-dihydro-2H-quinolin-1-yl]-propan-2-ol] | 28% | – | – |
| CC(C)c1cccc(-c2cccc3c2CCC(c2cccc(OC(F)(F)C(F)F)c2)N3CC(O)C(F)(F)F)c1 (centres unmarked) [Compound 67, 1,1,1-Trifluoro-3-{5-(3-isopropyl-phenyl)-2-[3-(1,1,2,2-tetrafluoro-ethoxy)-phenyl]-3,4-dihydro-2H-quinolin-1-yl}-propan-2-ol] | 29% | – | – |
| O[C@@H](CN1c2cccc(-c3cccc(OC(F)(F)F)c3)c2CC[C@H]1c1cccc(OC(F)(F)C(F)F)c1)C(F)(F)F [Compound 80, (2S, αS)-3,4-Dihydro-2-[3-(1,1,2,2-tetrafluoroethoxy)phenyl]-5-[3-(trifluoromethoxy)phenyl]-α-(trifluoromethyl)-1(2H)-quinolineethanol] | – | – | 20 |
| OC(CN1c2cccc(-c3cccc(OC(F)(F)F)c3)c2CCC1c1cccc(F)c1)C(F)(F)F (centres unmarked) [Compound 23, 1,1,1-Trifluoro-3-[2-(3-fluoro-phenyl)-5-(3-trifluoromethoxy-phenyl)-3,4-dihydro-2H-quinolin-1-yl]-propan-2-ol] | 33% | – | – |
| OC(CN1c2cccc(-c3cccc(F)c3)c2CCC1c1cccc(OC(F)(F)F)c1)C(F)(F)F (centres unmarked) [Compound 58, 1,1,1-Trifluoro-3-[5-(3-fluoro-phenyl)-2-(3-trifluoromethoxy-phenyl)-3,4-dihydro-2H-quinolin-1-yl]-propan-2-ol] | 40% | – | – |
| C[C@@H](O)CN1c2cccc(-c3cccc(F)c3)c2CC[C@@H]1c1cccc(OC(F)(F)F)c1 [Compound 55] | 34% | 6.96 | 39 |
| Cc1cc(-c2cccc3c2CCC(c2cccc(OC(F)(F)C(F)F)c2)N3CC(O)C(F)(F)F)ccc1Cl (centres unmarked) [Compound 6, 3-{5-(4-Chloro-3-methyl-phenyl)-2-[3-(1,1,2,2-tetrafluoro-ethoxy)-phenyl]-3,4-dihydro-2H-quinolin-1-yl}-1,1,1-trifluoro-propan-2-ol] | 42% | – | – |
| OC(CN1c2cccc(Oc3cccc(Cl)c3Cl)c2CCC1c1cccc(OC(F)(F)C(F)F)c1)C(F)(F)F (centres unmarked) [Compound 86, 3-{5-(2,3-Dichloro-phenoxy)-2-[3-(1,1,2,2-tetrafluoro-ethoxy)-phenyl]-3,4-dihydro-2H-quinolin-1-yl}-1,1,1-trifluoro-propan-2-ol] | – | – | 67 |
| OC(CN1c2cccc(-c3cccc(OC(F)(F)F)c3)c2CCC1c1ccccc1OC(F)(F)C(F)F)C(F)(F)F (centres unmarked) [Compound 90, 1,1,1-Trifluoro-3-[2-[2-(1,1,2,2-tetrafluoro-ethoxy)-phenyl]-5-(3-trifluoromethoxy-phenyl)-3,4-dihydro-2H-quinolin-1-yl]-propan-2-ol] | 0% | – | – |
| OC(CCl)CN1c2cccc(-c3cccc(OC(F)(F)F)c3)c2CCC1c1cccc(OC(F)(F)F)c1 (centres unmarked) [Compound 47, 1-[2,5-Bis-(3-trifluoromethoxy-phenyl)-3,4-dihydro-2H-quinolin-1-yl]-3-chloro-propan-2-ol] | 68% and 44% | 6.13 | – |
| CCC1CCc2c(-c3cccc(OC(F)(F)F)c3)cccc2N1CC(O)C(F)(F)F (centres unmarked) [Compound 36, 3-[2-Ethyl-5-(3-trifluoromethoxy-phenyl)-3,4-dihydro-2H-quinolin-1-yl]-1,1,1-trifluoro-propan-2-ol] | 11% and 13% | – | – |
| OC(CN1c2cccc(-c3cccc(F)c3)c2CCC1c1cccc(OC(F)(F)F)c1)C(F)(F)F (centres unmarked) [Compound 57, 1,1,1-Trifluoro-3-[5-(3-fluoro-phenyl)-2-(3-trifluoromethoxy-phenyl)-3,4-dihydro-2H-quinolin-1-yl]-propan-2-ol] | 92% and 97% and 91% | 7.23 and 6.60 | – |
| C[C@@H](O)CN1c2cccc(-c3cccc(OC(F)(F)F)c3)c2CC[C@@H]1c1cccc(OC(F)(F)C(F)F)c1 [Compound 70, (αR,2R)-3,4-Dihydro-α-methyl-2-[3-(1,1,2,2-tetrafluoroethoxy)phenyl]-5-[3-(trifluoromethoxy)phenyl]-1(2H)-quinolineethanol] | 69% and 59% | 7.20 and 7.41 | 61 |
| OC(CN1c2cccc(-c3cccc(C(F)(F)F)c3)c2CCC1c1cccc(OC(F)(F)C(F)F)c1)C(F)(F)F (centres unmarked) [Compound 13] | 98% and 87% | 7.02 | – |
| CC(C)C(O)CN1c2cccc(-c3cccc(OC(F)(F)F)c3)c2CCC1c1cccc(OC(F)(F)F)c1 (centres unmarked) [Compound 46, 1-[2,5-Bis-(3-trifluoromethoxy-phenyl)-3,4-dihydro-2H-quinolin-1-yl]-3-methyl-butan-2-ol] | 22% | – | – |
| OC(CN1c2cccc(-c3cccc(OC(F)(F)F)c3)c2CCC1c1cccc(F)c1)C(F)(F)F (centres unmarked) [Compound 24, 1,1,1-Trifluoro-3-[2-(3-fluoro-phenyl)-5-(3-trifluoromethoxy-phenyl)-3,4-dihydro-2H-quinolin-1-yl]-propan-2-ol] | 4% | – | – |
| OC(CCl)CN1c2cccc(-c3cccc(OC(F)(F)F)c3)c2CCC1c1cccc(OC(F)(F)F)c1 (centres unmarked) [Compound 48, 1-[2,5-Bis-(3-trifluoromethoxy-phenyl)-3,4-dihydro-2H-quinolin-1-yl]-3-chloro-propan-2-ol] | 0% | – | – |
| CC(C)C(O)CN1c2cccc(-c3cccc(OC(F)(F)F)c3)c2CCC1c1cccc(OC(F)(F)F)c1 (centres unmarked) [Compound 45, 1-[2,5-Bis-(3-trifluoromethoxy-phenyl)-3,4-dihydro-2H-quinolin-1-yl]-3-methyl-butan-2-ol] | 74% and 84% | 6.49 | – |
| OC(CN1c2cccc(-c3ccc(C(F)(F)F)cc3)c2CCC1c1cccc(OC(F)(F)C(F)F)c1)C(F)(F)F (centres unmarked) [Compound 4, 1,1,1-Trifluoro-3-[2-[3-(1,1,2,2-tetrafluoro-ethoxy)-phenyl]-5-(4-trifluoromethyl-phenyl)-3,4-dihydro-2H-quinolin-1-yl]-propan-2-ol] | 1% | – | – |
| O=C(CN1CCOCC1)N1c2cccc(-c3cccc(OC(F)(F)F)c3)c2CCC1c1cccc(OC(F)(F)F)c1 (centres unmarked) [Compound 88, 1-[2,5-Bis-(3-trifluoromethoxy-phenyl)-3,4-dihydro-2H-quinolin-1-yl]-2-morpholin-4-yl-ethanone] | – | – | 0 |
| CCc1cc(Oc2cccc3c2CCC(c2cccc(OC(F)(F)C(F)F)c2)N3CC(O)C(F)(F)F)ccc1Cl (centres unmarked) [Compound 85, 3-{5-(4-Chloro-3-ethyl-phenoxy)-2-[3-(1,1,2,2-tetrafluro-ethoxy)-phenyl]-3,4-dihydro-2H-quinolin-1-yl}-1,1,1-trifluoro-propan-2-ol] | 86% | 6.40 | – |
